Assay results: US20090208620A1, “Alimentary Compositions and Methods For Metabolic Modulation” (VDF FUTURECEUTICALS, INC., priority 2003, published 2009)
Where “and” joins values, the source holds several entries; their conditions need not be identical. Identical values can stand only once.

Experiments:
activated Akt = test: Western immunoblot for activated (phospho-Ser473) Akt in muscle cells; format: cell-based, mouse; settings: cells treated 30 minutes at 37° C
Description: (§1) The levels of Glut-4, activated AMPK and activated Akt were measured in mouse muscle cells C2C12 (from ATTC) and in primary culture of human skeletal muscle cells (Clonetics, Inc.) using Western immunoblotting. C2C12 cells were plated at 1.5×1-exp5 cells per mL/well (12-well plate) in standard cell culture medium (DMEM supplemented with 10% fetal bovine serum (FBS), 25 mM glucose, 20 mM Hepes, 4 mM glutamine and 2 mM sodium pyruvate. 48 hrs after the plating, medium was changed to differentiation medium (DMEM supplemented with 5 mM of glucose and 0.5% of FBS) for next 3-4 days to stimulate the formation of myotubes. Three hours before the treatment with selected agents, cells were washed with PBS and transferred to PBS supplemented with 5 mM of glucose.
(§2) Human skeletal muscle cells (HSKM) were cultured in SKBM-2 mediums provided by Clonetics. 48 hrs after cell plating, medium was changed to SKBM medium to stimulate differentiation of the cells to myotubes. When differentiated, the myotubes were transferred to PBS supplemented with 5 mM glucose for three hrs before the treatment.
(§3) Analysis of C2C12 cells for the level of activated AMPK, Akt and the level of GLUT-4 was performed in the same experimental system. The cells were treated for 30 minutes at 37° C. […] Subsequently, 20 μg per sample of sample protein was used for Western analysis using NuPage 10% Bis/Tris gels (Invitrogen). After exposure of membranes to primary and secondary antibodies AMPK, AKT or Glut-4 was detected using ECL-Plus (Amersham) following producer's instruction. Chemilumiscent signals were detected by using ChemiDoc system from Biorad. Intensity of detected signals were analyzed and measured using Quantity One software (Biorad). Alternatively, the level of phosphorylated AMPK was detected using ECL kit from Amersham and short exposure to Kodak films.
(§4) Experimental setup: Cell Culture was followed by treatment with selected contemplated compounds, which was followed by cell lysis and western blot analysis for AMPK, Akt, GLUT4, total AMPK, and total Akt. Signals were acquired accordingly.

muscle cells = test: Total glucose uptake in vitro with fluorescent glucose analog; format: cell-based; settings: for AVERAGE (N = 3) fluorescence of fluorescent glucose in the cells / FOLD CHANGE IN TOTAL GLUCOSE UPTAKE (OVER CONTROL): 30 minutes at 37 C
Description: Total glucose uptake was measured using fluorescent glucose analog from Molecular Probes. Briefly, muscle cells were treated with kinetin, N^2-Acetyl-Guanosine and N^2-Acetyl-Guanine for 30 minutes at 37 C first and subsequently, these cells were exposed to 500 μM of fluorescent glucose analog for 5 minutes at room temperature. Next, cells were washed twice with cold Krebs-Hepes buffered solution and fixed in 70% ethanol in water. Fluorescence of fluorescent glucose in the cells was measured using fluorescent plate reader at 480/530 nm (excitation/emission). […] Table 4 refers to multiple independent experiments where multiple identical concentrations for the same reagents are indicated.

GLUT-4 = test: Western immunoblot for GLUT-4 protein level in C2C12 cells; format: cell-based, mouse
Description: as §1
Analysis of C2C12 cells for the level of activated AMPK, Akt and the level of GLUT-4 was performed in the same experimental system. The cells were treated for 30 minutes at 37° C. After the treatment, the cells were washed with ice-cold PBS and lysed with 80 μl of lysis buffer/well (M-PER buffer from Pierce supplemented with protease and phosphatase inhibitor mix (Calbiochem) for 10 minutes on ice. Next, the plates were transferred to −20° C. to improve the lysis of the cells. Next cells were sonicated for 5 minutes and lysate was transferred to Eppendorf tubes and centrifuged at 14,000 rpm for 10 minutes. Supernatants were collected in fresh Eppendorf tubes and kept on ice to measure the amount of total proteins. 3 μl of each lysate was used to measure the protein concentration using standard Bradford method (Biorad). Subsequently, 20 μg per sample of sample protein was used for Western analysis using NuPage 10% Bis/Tris gels (Invitrogen). After exposure of membranes to primary and secondary antibodies AMPK, AKT or Glut-4 was detected using ECL-Plus (Amersham) following producer's instruction. Chemilumiscent signals were detected by using ChemiDoc system from Biorad. Intensity of detected signals were analyzed and measured using Quantity One software (Biorad). Alternatively, the level of phosphorylated AMPK was detected using ECL kit from Amersham and short exposure to Kodak films.
Experimental setup: Cell Culture was followed by treatment with selected contemplated compounds, which was followed by cell lysis and western blot analysis for AMPK, Akt, GLUT4, total AMPK, and total Akt. Signals were acquired accordingly. Primary antibodies used in these studies are the following: Anti-phospho-AMPK (Thr172), mouse, rabbit IgG, from Cell Signaling, #2531; Anti-phospho-Akt (Ser473), mouse, rabbit IgG, Cell Signaling, #9271; Anti-Glut-4, mouse, rabbit IgG, Calbiochem, #400064; Anti-AMPK (total), mouse, rabbit IgG, Cell Signaling, #2532; Anti-Akt (total), mouse, rabbit IgG, Cell Signaling, #9272.
The effects of kinetin, N^2-Acetyl-Guanosine and N^2-Acetyl-Guanine on GLUT-4 protein level in C2C12 cells were investigated following the same experimental design as described for AMPK and AKT. Anti-Glut-4 antibody used in this study was from Calbiochem. […] Table 3 refers to multiple independent experiments where multiple identical concentrations for the same reagents are indicated.

activated AMPK = test: Western immunoblot for activated (phospho-Thr172) AMPK in muscle cells; format: cell-based, mouse; settings: cells treated 30 minutes at 37° C
Description: as §1, §2, §3, §4

[1] = tested on: rat epitrochlearis muscle; test: Glucose uptake in rat epitrochlearis muscle; format: cell-based; set-up: unit not given here; settings: 60 minute incubation at 37 C, 10 minute transport at 30 C; for Glucose uptake, Raw: single values, listed as K
Description: Glucose uptake in rat epitrochlearis muscle was determined following a protocol substantially as described by Brozinick, J. T., and Birnbaum, M. J. (1998) J. Biol. Chem. 273(24), […]. Results are listed in Tables 5 and 6, wherein data of Table 5 were obtained for 60 minute incubations (at 37 C), 10 minute transport at (30 C) and data of Table 6 were obtained for 60 minute incubations (at 37 C), 10 minute transport at (30 C) of the compounds as indicated (K is kinetin, AG is N2-acetylguanine).

[2] = Oral availability and serum level of DHZ by ELISA; format: in vivo, C57/B1 mice; settings: 100 microgram/dose, mice; for concentration at 0 minutes / concentration at 15 minutes / concentration at 30 minutes / concentration at 60 minutes / concentration at 120 minutes: C57/B1, mouse, serum
Description: C57/B1 mice were treated with 100 microgram/dose of dihydrozeatin (DHZ) for 0, 15, 30, 60 and 120 minutes following oral or i.p. administration. Serum level of DHZ in pg/ml was measured using DHZ Elisa following procedures as enclosed in a commercially available test kit (e.g., dihydrozeatin competitive ELISA test system for plant growth hormone detection, Agdia, Elkhard, Ind.).

[3] = concentration 0.15 (unit not given)
[4] = concentration 0.3 (unit not given)
[5] = concentration 0.75 (unit not given)
[6] = concentration 1.5 (unit not given)
[7] = concentration 3.75 (unit not given)
[8] = concentration 7.5 (unit not given)

## c1coc(CNc2ncnc3[nH]cnc23)c1 [Kinetin, kinetin]
Activated Akt; 0.3 microM
  FOLD AKT ACTIVATION (OVER CONTROL): 5.08 fold
Activated Akt; 0.8 microM
  FOLD AKT ACTIVATION (OVER CONTROL): 3.17 fold
Activated Akt; 0.9 microM
  FOLD AKT ACTIVATION (OVER CONTROL): 3.81 fold
Activated Akt; 2.0 microM
  FOLD AKT ACTIVATION (OVER CONTROL): 3.35 fold
Activated Akt; 2.7 microM
  FOLD AKT ACTIVATION (OVER CONTROL): 3.21 fold
Activated Akt; 5.0 microM
  FOLD AKT ACTIVATION (OVER CONTROL): 2.07 fold
Activated Akt; 8.1 microM
  FOLD AKT ACTIVATION (OVER CONTROL): 0.24 fold
Muscle cells
  effect on glucose uptake in muscle cells in vitro (in words): potently enhance glucose uptake in muscle cells in vitro
Muscle cells; [3]
  AVERAGE (N = 3) fluorescence of fluorescent glucose in the cells: 88.6 +/− 0.9
  FOLD CHANGE IN TOTAL GLUCOSE UPTAKE (OVER CONTROL): 1.88 fold
Muscle cells; [4]
  AVERAGE (N = 3) fluorescence of fluorescent glucose in the cells: 86.0 +/− 0.7
  FOLD CHANGE IN TOTAL GLUCOSE UPTAKE (OVER CONTROL): 2.97 fold
Muscle cells; [5]
  AVERAGE (N = 3) fluorescence of fluorescent glucose in the cells: 103.3 +/− 2.1
  FOLD CHANGE IN TOTAL GLUCOSE UPTAKE (OVER CONTROL): 2.19 fold
Muscle cells; [6]
  AVERAGE (N = 3) fluorescence of fluorescent glucose in the cells: 110.6 +/− 2.3
  FOLD CHANGE IN TOTAL GLUCOSE UPTAKE (OVER CONTROL): 3.82 fold
Muscle cells; [7]
  AVERAGE (N = 3) fluorescence of fluorescent glucose in the cells: 102.6 +/− 4.7
  FOLD CHANGE IN TOTAL GLUCOSE UPTAKE (OVER CONTROL): 2.18 fold
Muscle cells; [8]
  AVERAGE (N = 3) fluorescence of fluorescent glucose in the cells: 56.6 +/− 1.4
  FOLD CHANGE IN TOTAL GLUCOSE UPTAKE (OVER CONTROL): 1.95 fold
GLUT-4
  effect on GLUT-4 protein level (in words): potently increase GLUT-4 protein level
GLUT-4; 0.3 microM
  FOLD CHANGE IN GLUT-4 LEVEL (OVER CONTROL): 3.45 fold and 3.95 fold
GLUT-4; 0.8 microM
  FOLD CHANGE IN GLUT-4 LEVEL (OVER CONTROL): 3.46 fold and 2.36 fold
GLUT-4; 0.9 microM
  FOLD CHANGE IN GLUT-4 LEVEL (OVER CONTROL): 4.00 fold
GLUT-4; 2.0 microM
  FOLD CHANGE IN GLUT-4 LEVEL (OVER CONTROL): 1.88 fold
GLUT-4; 2.7 microM
  FOLD CHANGE IN GLUT-4 LEVEL (OVER CONTROL): 3.88 fold
GLUT-4; 8.1 microM
  FOLD CHANGE IN GLUT-4 LEVEL (OVER CONTROL): 1.11 fold
Activated AMPK; 0.1 microM
  FOLD AMPK ACTIVATION (OVER CONTROL): 5.30 fold
Activated AMPK; 0.3 microM
  FOLD AMPK ACTIVATION (OVER CONTROL): 8.12 fold
Activated AMPK; 0.8 microM
  FOLD AMPK ACTIVATION (OVER CONTROL): 3.60 fold and 2.40 fold
Activated AMPK; 1.0 microM
  FOLD AMPK ACTIVATION (OVER CONTROL): 19.50 fold
Activated AMPK; 2.0 microM
  FOLD AMPK ACTIVATION (OVER CONTROL): 2.70 fold
Activated AMPK; 3.0 microM
  FOLD AMPK ACTIVATION (OVER CONTROL): 14.50 fold
Activated AMPK; 10.0 microM
  FOLD AMPK ACTIVATION (OVER CONTROL): 12.80 fold
[1]; 0.5 uM
  Glucose uptake, Mean: 0.99
[1]; 1 uM (Table 6)
  Glucose uptake, Mean: 1.23
  Glucose uptake, Raw: 1.54 and 0.95 and 1.33 and 1.10 and 1.23
[1]; 2 uM
  Glucose uptake, Mean: 0.70
  Glucose uptake, Raw: 0.57 and 0.90 and 0.64 and 0.81

## CC(CO)CCNc1ncnc2nc[nH]c12 (stereo not drawn) [Dihydro-Zeatin, dihydrozeatin]
[2]; ip
  concentration at 0 minutes: 0.3 ng/mL
  concentration at 15 minutes: 1.15 ng/mL
  concentration at 30 minutes: 0.991 ng/mL
  concentration at 60 minutes: 0.746 ng/mL
  concentration at 120 minutes: 0.471 ng/mL
[2]; Oral
  concentration at 0 minutes: 0.3 ng/mL
  concentration at 15 minutes: 0.952 ng/mL
  concentration at 30 minutes: 1.02 ng/mL
  concentration at 60 minutes: 0.961 ng/mL
  concentration at 120 minutes: 0.853 ng/mL
[2]
  oral bioavailability (in words): readily bioavailable from the oral route
  time over which significant serum concentrations can be maintained: at least 120 minutes
Activated AMPK; 0.5 microM
  FOLD AMPK ACTIVATION (OVER CONTROL): 2.25 fold
Activated AMPK; 5.0 microM
  FOLD AMPK ACTIVATION (OVER CONTROL): 0.59 fold
Activated AMPK; 50.0 microM
  FOLD AMPK ACTIVATION (OVER CONTROL): 0.88 fold
